How the values were obtained:
SERT = SERT (Homo sapiens, UniProt P31645); experiment: PDSP secondary radioligand displacement assay, Ki; type: binding; conditions: supplement xlsx
Source text: (§1) Thirteen analogs, in addition to ibogamine itself (Figure ), were submitted to the PDSP for biological evaluation. Primary radioligand displacement assays were run on 44 neurotransmitter receptors and transporters to give a snapshot of the receptor affinity for each ligand.

Alpha2A = target: T1, Alpha2A (Homo sapiens, UniProt P08913); experiment: PDSP secondary radioligand displacement assay, Ki; type: binding
T1 sequence (P08913 1-465): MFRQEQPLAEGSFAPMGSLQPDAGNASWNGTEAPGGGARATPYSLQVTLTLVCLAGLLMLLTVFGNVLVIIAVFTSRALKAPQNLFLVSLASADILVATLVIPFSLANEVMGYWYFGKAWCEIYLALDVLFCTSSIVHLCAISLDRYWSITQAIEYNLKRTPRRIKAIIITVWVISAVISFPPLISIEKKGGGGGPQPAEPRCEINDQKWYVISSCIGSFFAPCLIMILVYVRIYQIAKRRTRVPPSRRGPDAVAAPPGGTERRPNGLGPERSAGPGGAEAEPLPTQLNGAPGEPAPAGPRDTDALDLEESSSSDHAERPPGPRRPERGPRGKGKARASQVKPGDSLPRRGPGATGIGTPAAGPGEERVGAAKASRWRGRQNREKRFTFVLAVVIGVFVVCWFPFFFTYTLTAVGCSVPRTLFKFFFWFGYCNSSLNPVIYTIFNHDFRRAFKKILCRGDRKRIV
Source text: as §1

KOR = KOR (Homo sapiens, UniProt P41145); experiment: PDSP secondary radioligand displacement assay, Ki; type: binding; conditions: supplement xlsx
KOR, sequence (P41145 whole entry): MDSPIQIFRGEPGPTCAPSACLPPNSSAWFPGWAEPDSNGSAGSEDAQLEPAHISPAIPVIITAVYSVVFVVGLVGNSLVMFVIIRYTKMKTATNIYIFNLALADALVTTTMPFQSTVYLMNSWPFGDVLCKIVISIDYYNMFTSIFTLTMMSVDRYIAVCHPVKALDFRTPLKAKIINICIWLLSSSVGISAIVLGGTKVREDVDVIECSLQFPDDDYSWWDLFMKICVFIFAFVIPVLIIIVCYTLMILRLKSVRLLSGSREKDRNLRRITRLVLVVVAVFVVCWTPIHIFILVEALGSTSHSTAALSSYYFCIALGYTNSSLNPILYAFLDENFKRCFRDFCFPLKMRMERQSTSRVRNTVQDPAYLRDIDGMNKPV
Source text: as §1

DAT = DAT (Homo sapiens, UniProt Q01959); experiment: PDSP secondary radioligand displacement assay, Ki; type: binding
DAT, sequence (Q01959 whole entry, species assumed): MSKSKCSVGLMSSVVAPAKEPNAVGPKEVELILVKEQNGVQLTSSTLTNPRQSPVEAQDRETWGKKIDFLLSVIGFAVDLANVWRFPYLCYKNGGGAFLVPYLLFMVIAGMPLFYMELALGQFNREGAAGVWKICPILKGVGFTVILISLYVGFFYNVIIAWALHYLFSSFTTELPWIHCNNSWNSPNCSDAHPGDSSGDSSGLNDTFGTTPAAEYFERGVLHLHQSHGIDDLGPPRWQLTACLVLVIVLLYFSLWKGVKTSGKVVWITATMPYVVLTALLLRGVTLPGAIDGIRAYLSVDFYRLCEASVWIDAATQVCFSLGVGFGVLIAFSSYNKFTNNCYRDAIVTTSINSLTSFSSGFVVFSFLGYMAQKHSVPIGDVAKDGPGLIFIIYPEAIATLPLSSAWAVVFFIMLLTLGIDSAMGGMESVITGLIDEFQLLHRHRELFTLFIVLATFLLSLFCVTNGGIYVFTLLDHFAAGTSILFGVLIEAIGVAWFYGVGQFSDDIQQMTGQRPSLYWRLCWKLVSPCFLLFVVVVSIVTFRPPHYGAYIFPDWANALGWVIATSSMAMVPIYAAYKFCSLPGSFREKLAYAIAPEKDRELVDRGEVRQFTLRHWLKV
Source text: as §1

NET = NET (Homo sapiens, UniProt P23975); experiment: PDSP secondary radioligand displacement assay, Ki; type: binding
NET, sequence (P23975 whole entry): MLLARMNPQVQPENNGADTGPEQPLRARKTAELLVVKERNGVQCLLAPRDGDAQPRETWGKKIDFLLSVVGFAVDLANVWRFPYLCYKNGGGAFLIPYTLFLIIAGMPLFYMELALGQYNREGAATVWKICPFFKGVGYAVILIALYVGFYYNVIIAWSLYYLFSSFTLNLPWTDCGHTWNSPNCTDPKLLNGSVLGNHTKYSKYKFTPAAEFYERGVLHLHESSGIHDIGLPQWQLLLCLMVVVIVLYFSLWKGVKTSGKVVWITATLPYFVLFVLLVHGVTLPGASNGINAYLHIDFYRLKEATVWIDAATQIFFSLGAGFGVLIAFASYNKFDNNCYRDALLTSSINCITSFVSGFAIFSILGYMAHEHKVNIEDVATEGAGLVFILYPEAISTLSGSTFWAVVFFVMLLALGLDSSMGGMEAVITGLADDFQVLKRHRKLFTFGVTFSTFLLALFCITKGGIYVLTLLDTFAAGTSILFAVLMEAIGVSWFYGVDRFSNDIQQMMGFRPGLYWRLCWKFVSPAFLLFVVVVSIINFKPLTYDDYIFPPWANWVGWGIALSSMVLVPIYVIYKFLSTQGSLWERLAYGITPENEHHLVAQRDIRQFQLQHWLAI
Source text: as §1

Alpha2C = target: T2, Alpha2C (Homo sapiens, UniProt P18825); experiment: PDSP secondary radioligand displacement assay, Ki; type: binding; conditions: Ki values (nM) Alpha2C, supplement xlsx and text
T2 sequence (P18825 1-462): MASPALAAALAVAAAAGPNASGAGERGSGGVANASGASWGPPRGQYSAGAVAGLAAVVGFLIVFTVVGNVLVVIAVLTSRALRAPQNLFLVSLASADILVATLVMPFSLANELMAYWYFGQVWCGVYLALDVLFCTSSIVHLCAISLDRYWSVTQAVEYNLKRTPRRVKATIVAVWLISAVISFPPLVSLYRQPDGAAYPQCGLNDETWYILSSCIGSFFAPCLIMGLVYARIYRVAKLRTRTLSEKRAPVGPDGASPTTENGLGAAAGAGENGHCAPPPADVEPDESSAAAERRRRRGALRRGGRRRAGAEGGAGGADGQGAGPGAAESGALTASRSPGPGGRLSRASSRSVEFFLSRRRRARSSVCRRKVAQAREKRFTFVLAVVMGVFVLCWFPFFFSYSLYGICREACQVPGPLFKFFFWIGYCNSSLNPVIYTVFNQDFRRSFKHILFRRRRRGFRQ
Source text: as §1

M2 = target: T3, M2 (Homo sapiens, UniProt P08172); experiment: PDSP secondary radioligand displacement assay, Ki; type: binding
T3 sequence (P08172 1-466): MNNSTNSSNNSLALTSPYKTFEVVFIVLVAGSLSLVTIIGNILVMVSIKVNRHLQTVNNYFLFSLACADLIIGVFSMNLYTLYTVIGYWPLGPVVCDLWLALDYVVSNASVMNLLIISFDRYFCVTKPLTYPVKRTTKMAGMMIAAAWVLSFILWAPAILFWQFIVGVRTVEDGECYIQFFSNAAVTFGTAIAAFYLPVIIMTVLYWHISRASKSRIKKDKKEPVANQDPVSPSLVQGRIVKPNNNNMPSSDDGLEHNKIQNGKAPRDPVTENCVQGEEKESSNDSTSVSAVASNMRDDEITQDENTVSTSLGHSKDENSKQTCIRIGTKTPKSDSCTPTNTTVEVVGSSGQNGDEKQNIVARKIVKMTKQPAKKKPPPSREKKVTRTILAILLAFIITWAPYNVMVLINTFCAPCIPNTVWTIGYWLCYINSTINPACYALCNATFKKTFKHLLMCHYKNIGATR
Source text: as §1

Alpha1B = Alpha1B (Homo sapiens, UniProt P35368); experiment: PDSP secondary radioligand displacement assay, Ki; type: binding
Source text: as §1

M3 = M3 (Homo sapiens, UniProt P20309); experiment: PDSP secondary radioligand displacement assay, Ki; type: binding
M3, sequence (P20309 whole entry): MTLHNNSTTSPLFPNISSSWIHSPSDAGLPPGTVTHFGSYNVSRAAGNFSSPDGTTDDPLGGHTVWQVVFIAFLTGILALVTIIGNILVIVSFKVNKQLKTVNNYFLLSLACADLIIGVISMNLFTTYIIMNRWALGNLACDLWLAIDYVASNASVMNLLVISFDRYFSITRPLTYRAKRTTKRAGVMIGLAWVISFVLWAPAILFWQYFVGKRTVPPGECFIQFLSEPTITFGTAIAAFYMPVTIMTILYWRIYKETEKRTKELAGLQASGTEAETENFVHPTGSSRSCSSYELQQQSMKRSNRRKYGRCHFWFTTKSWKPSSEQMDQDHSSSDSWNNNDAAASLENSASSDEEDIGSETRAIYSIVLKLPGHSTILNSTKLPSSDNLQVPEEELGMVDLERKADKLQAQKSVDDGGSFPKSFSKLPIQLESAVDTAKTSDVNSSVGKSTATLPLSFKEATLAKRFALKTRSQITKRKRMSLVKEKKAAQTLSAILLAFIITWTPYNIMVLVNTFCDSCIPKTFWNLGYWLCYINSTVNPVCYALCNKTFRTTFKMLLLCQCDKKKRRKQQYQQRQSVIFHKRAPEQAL
Source text: as §1

5-HT3 = 5-HT3 (Homo sapiens, UniProt P46098); experiment: PDSP secondary radioligand displacement assay, Ki; type: binding; conditions: supplement xlsx
Source text: as §1

5-HT2A = 5-HT2A (Homo sapiens, UniProt P28223); experiment: PDSP secondary radioligand displacement assay, Ki; type: binding; conditions: supplement xlsx
Source text: as §1

Alpha2B = target: T4, Alpha2B (Homo sapiens, UniProt P18089); experiment: PDSP secondary radioligand displacement assay, Ki; type: binding; conditions: supplement xlsx
T4 sequence (P18089 1-450): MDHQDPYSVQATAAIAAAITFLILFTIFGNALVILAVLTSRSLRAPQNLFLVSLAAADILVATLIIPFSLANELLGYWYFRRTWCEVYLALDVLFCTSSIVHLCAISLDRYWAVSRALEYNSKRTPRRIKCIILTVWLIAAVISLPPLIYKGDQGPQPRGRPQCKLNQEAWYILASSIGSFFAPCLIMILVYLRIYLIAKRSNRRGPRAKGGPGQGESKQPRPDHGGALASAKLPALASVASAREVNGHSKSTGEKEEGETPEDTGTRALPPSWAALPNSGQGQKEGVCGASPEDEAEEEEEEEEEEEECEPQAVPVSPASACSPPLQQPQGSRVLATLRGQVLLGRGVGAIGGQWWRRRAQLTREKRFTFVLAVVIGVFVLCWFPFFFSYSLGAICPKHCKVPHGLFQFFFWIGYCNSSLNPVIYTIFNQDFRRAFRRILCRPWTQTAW
Source text: as §1

H3 = H3 (Homo sapiens, UniProt Q9Y5N1); experiment: PDSP secondary radioligand displacement assay, Ki; type: binding
H3, sequence (Q9Y5N1 whole entry): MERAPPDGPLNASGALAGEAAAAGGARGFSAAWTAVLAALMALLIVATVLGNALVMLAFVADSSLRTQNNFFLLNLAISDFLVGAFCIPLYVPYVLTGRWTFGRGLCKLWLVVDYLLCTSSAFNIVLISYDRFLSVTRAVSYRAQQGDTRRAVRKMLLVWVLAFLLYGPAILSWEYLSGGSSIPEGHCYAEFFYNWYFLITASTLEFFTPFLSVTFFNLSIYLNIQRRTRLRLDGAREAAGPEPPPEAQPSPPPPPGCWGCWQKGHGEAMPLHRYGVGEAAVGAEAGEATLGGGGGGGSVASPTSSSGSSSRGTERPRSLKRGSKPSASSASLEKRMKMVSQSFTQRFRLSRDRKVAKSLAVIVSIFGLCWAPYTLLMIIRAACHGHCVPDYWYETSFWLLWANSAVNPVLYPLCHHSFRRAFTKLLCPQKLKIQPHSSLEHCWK
Source text: as §1

MOR = MOR (Homo sapiens, UniProt P35372); experiment: PDSP secondary radioligand displacement assay, Ki; type: binding; conditions: supplement xlsx
MOR, sequence (P35372 whole entry): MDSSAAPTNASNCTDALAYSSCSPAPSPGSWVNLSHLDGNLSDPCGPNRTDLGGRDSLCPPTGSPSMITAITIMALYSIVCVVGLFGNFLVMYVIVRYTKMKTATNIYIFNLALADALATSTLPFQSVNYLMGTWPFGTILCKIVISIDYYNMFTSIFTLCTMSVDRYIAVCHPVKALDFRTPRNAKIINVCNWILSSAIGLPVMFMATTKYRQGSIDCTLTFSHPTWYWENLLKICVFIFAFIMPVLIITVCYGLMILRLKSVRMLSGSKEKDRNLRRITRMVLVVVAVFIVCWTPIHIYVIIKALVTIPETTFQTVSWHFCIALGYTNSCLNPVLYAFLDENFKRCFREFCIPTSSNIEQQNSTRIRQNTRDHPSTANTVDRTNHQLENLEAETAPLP

5-HT1D = 5-HT1D (Homo sapiens, UniProt P28221); experiment: PDSP secondary radioligand displacement assay, Ki; type: binding; conditions: supplement xlsx
5-HT1D, sequence (P28221 whole entry, species assumed): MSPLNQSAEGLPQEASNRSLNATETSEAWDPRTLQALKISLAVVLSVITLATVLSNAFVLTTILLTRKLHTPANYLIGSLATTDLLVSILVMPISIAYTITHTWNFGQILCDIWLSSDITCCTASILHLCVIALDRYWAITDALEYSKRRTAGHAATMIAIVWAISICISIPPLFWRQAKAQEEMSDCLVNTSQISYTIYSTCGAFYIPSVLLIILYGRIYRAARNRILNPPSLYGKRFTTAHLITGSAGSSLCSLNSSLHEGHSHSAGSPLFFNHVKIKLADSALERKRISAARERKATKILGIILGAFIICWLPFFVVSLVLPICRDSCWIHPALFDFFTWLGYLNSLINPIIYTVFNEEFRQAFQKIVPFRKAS
Source text: as §1

M1 = M1 (Homo sapiens, UniProt P11229); experiment: PDSP secondary radioligand displacement assay, Ki; type: binding
M1, sequence (P11229 whole entry): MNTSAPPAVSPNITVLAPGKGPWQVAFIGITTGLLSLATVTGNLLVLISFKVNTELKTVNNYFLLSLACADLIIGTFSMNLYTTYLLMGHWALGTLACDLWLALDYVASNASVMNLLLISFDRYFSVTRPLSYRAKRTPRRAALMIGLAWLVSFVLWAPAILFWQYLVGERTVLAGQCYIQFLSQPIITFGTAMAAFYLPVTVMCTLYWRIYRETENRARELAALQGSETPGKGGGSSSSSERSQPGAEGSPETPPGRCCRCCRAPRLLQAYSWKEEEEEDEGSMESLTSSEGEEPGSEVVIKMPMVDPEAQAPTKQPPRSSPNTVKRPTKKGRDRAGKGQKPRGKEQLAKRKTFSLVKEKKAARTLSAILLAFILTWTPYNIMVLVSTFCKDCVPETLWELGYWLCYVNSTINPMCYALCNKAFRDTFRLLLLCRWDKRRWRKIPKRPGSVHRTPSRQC
Source text: as §1

H4 = H4 (Homo sapiens, UniProt Q9H3N8); experiment: PDSP secondary radioligand displacement assay, Ki; type: binding; conditions: supplement xlsx
Source text: as §1

M5 = M5 (Homo sapiens, UniProt P08912); experiment: PDSP secondary radioligand displacement assay, Ki; type: binding
Source text: as §1

M4 = M4 (Homo sapiens, UniProt P08173); experiment: PDSP secondary radioligand displacement assay, Ki; type: binding; conditions: supplement xlsx
M4, sequence (P08173 whole entry): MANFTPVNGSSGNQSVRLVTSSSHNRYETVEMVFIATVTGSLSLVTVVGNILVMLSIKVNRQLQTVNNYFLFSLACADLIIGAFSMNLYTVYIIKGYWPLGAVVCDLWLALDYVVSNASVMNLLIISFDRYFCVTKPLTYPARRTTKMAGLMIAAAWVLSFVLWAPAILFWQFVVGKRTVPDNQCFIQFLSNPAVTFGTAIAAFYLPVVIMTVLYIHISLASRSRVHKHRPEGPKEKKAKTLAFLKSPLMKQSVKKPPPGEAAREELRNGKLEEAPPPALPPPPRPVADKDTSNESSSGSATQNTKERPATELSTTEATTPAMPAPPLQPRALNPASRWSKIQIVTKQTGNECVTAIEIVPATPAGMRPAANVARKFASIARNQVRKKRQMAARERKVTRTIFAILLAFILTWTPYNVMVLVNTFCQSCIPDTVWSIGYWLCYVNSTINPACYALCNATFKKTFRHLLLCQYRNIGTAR
Source text: as §1

H1 = H1 (Homo sapiens, UniProt P35367); experiment: PDSP secondary radioligand displacement assay, Ki; type: binding
Source text: as §1

D3 = D3 (Homo sapiens, UniProt P35462); experiment: PDSP secondary radioligand displacement assay, Ki; type: binding
Source text: as §1

D2 = D2 (Homo sapiens, UniProt P14416); experiment: PDSP secondary radioligand displacement assay, Ki; type: binding
Source text: as §1

S2R = target: S2R; parameters: method as in earlier work; conditions: ref 30 (Bowen et al., 1995); read-out: affinity at S2R (Ki); cited from earlier work

SERT, sequence (P31645 whole entry, species assumed): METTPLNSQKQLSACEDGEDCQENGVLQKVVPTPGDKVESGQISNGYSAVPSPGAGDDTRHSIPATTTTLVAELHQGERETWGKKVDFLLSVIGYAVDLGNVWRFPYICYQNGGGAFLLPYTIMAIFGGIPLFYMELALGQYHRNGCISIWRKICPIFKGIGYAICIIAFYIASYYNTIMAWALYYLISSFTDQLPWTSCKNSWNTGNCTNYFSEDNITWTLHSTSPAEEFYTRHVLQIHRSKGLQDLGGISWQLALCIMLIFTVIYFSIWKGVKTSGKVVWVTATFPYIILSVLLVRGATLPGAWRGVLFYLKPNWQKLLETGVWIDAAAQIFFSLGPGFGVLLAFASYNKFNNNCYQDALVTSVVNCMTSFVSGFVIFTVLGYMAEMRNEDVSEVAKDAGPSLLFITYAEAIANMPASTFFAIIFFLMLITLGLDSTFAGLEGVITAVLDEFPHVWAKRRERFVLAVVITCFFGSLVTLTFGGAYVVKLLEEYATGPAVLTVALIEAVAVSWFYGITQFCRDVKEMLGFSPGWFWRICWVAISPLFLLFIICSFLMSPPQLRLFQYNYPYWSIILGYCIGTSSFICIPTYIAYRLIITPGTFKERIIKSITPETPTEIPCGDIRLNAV

Row | Molecule | Ki (SERT) [nM] | Ki (Alpha2A) [nM] | Ki (KOR) [nM] | Ki (Alpha2C) [nM] | Ki (M2) [nM] | Ki (M3) [nM] | Ki (H3) [nM] | Ki (MOR) [nM] | further results
1 | CCC1C[C@H]2CC3c4[nH]c5ccccc5c4CCN(C2=O)C13 (stereo in doubt) [compound 22] | 1380 |  |  |  |  |  |  |  | 
2 | CCC1CC2CC3c4[nH]c5cc(F)ccc5c4CCN(C2)C13 (stereo not drawn) [7a] | 153 | 4100 | 4770 | 623 | 2690 | 734 |  |  | Ki (DAT): 1320 nM; Ki (NET): 5700 nM; Ki (Alpha1B): 2090 nM
3 | CCC1CC2CC3c4[nH]c5cc(Cl)ccc5c4CCN(C2)C13 (stereo not drawn) [7b] | 177 | 1720 | 1400 | 1360 | 2940 | 811 | 2880 | 4450 | Ki (NET): 1790 nM; Ki (5-HT3): 1010 nM; Ki (5-HT2A): 3000 nM; Ki (Alpha2B): 2360 nM
4 | CCC1CC2CC3c4[nH]c5cc(Br)ccc5c4CCN(C2)C13 (stereo not drawn) [7c] | 162 | 1630 | 1040 | 71 | 8030 | 1520 | 3320 | 4210 | Ki (DAT): 807 nM; Ki (NET): 1750 nM; Ki (5-HT3): 1400 nM; Ki (Alpha2B): 1620 nM; Ki (5-HT1D): 7460 nM
5 | CCC1CC2CC3c4[nH]c5cc(C(F)(F)F)ccc5c4CCN(C2)C13 (stereo not drawn) [7e] | 206 | 1420 | 1500 | 110 |  | 1950 | 2290 | 3810 | Ki (M1): 4570 nM; Ki (5-HT2A): 1800 nM; Ki (Alpha2B): 1650 nM; Ki (H4): 3030 nM
6 | CCC1CC2CC3c4[nH]c5cc6c(cc5c4CCN(C2)C13)OCO6 (stereo not drawn) [7f] |  |  |  |  |  |  | 5410 |  | Ki (5-HT1D): > 10000 nM
7 | C[C@H]1CC2CC3c4[nH]c5ccccc5c4CCN(C2)C31 (stereo partly drawn) [7g] | 371 |  |  |  |  |  |  |  | 
8 | CC(C)[C@H]1CC2CC3c4[nH]c5ccccc5c4CCN(C2)C31 (stereo partly drawn) [7h] | 709 |  | 995 |  |  | 414 |  | 3130 | Ki (DAT): 2020 nM; Ki (M5): 1100 nM; Ki (M4): 416 nM
9 | c1ccc2c3c([nH]c2c1)C1CC2C[C@H](C4CCOCC4)C1N(CC3)C2 (stereo partly drawn) [7i] | 1710 |  |  |  | 150 | 73.7 |  | 1810 | Ki (M1): 138 nM; Ki (M5): 224 nM; Ki (H1): 882 nM; Ki (M4): 37.9 nM
10 | CCC1CC2CC3c4c(c5ccccc5n4CC=C(C)C)CCN(C2)C13 (stereo not drawn) [compound 23] |  |  |  |  |  |  |  | 6440 | Ki (D3): 249 nM; Ki (H1): 1710 nM; Ki (D2): 2420 nM
11 | CC[C@H]1C[C@H]2C[C@H]3c4[nH]c5ccccc5c4CCN(C2)[C@@H]13 [ibogamine (1), ibogamine, reference compound] | 272 |  |  |  |  | 2460 |  | 2460 | Ki (S2R): 137 nM
12 | CC[C@H]1C[C@@H]2C[C@H]3c4[nH]c5cc(OC)ccc5c4CC[N@@](C2)[C@@H]13 [tabernanthine (3), tabernanthine, reference compound] | 1300 |  | 319 |  |  |  | 2300 |  | Ki (5-HT1D): 7660 nM; Ki (S2R): 194 nM
13 | ibogaine [ibogaine (2)] |  |  |  |  |  |  |  |  | Ki (S2R): 201 nM

Reference: article PMC12183592, “Discovery of Iboga-Derived Ligands for the Sigma‑2 Receptor” (ACS Bio & Med Chem Au, 2025)
